Values of other authors in patent US20220347165A1, “EFFERVESCENT ORAL COMPOSITION” (NICOVENTURES TRADING LIMITED, priority 2021, published 2022).

Tests used:
[1] = when isolated; isomerizes to trans-bixin

Row | solubility in water | solubility in fats and alcohols (fats and alcohols) | chemical stability [1] | Compound
1 | water soluble |  |  | CC(/C=C/C=C(C)/C=C/C(=O)O)=C\C=C\C=C(C)\C=C\C=C(C)\C=C\C(=O)O (stereo in doubt) [norbixin, (2E,4E,6E,8E,10E,12E,14E,16E,18E)-4,8,13,17-tetramethylicosa-2,4,6,8,10,12,14,16,18-nonaenedioic acid]
2 | insoluble in water | soluble in fats and alcohols | chemically unstable when isolated | COC(=O)/C=C/C(C)=C\C=C\C(C)=C\C=C\C=C(C)\C=C\C=C(C)\C=C\C(=O)O [bixin, (2E,4E,6E,8E,10E,12E,14E,16Z,18E)-20-methoxy-4,8,13,17-tetramethyl-20-oxoicosa-2,4,6,8,10,12,14,16,18-nonaenoic acid]
